# Results taken from ChEMBL document CHEMBL2396526, “Chromenylchalcones showing cytotoxicity on human colon cancer cell lines and in silico docking with aurora kinases” (Bioorg Med Chem, 2013).
# System: HCT-116
# Experiment: Cytotoxicity against human HCT116 cells by MTT assay
# Type: functional, cell-based
# Settings: not given
row,Compound,IC50 [µM]
1,O=C(O[C@H]1Cc2c(O)cc(O)cc2O[C@@H]1c1ccc(O)c(O)c1)c1cc(O)c(O)c(O)c1 [CATECHIN GALLATE],53
2,O=C(O[C@@H]1Cc2c(O)cc(O)cc2O[C@@H]1c1ccc(O)c(O)c1)c1cc(O)c(O)c(O)c1 [EPICATECHIN GALLATE],76

# System: HCT-116
# Experiment: Cytotoxicity against human HCT116 cells assessed as cell survival at 5 to 40 uM after 7 days by crystal violet staining assay
# Type: functional, cell-based
# Settings: HCT-116, 168 h
row,Compound,IC50 [µM]
1,COc1cc(/C=C/C(=O)C2=Cc3cc(OC)ccc3OC2)cc(OC)c1,0.33
2,COc1ccc2c(c1)C=C(C(=O)/C=C/C1=Cc3ccc(OC)cc3OC1)CO2,18.8
3,COc1ccc2c(c1)C=C(C(=O)/C=C/c1ccc(OC)cc1OC)CO2,3.97
4,COc1ccc2c(c1)C=C(C(=O)/C=C/c1cc(OC)c(OC)cc1OC)CO2,2.5
5,COc1ccc2c(c1)C=C(C(=O)/C=C/c1ccccc1OC)CO2,1.62
6,COc1cc(OC)cc(C(=O)/C=C/C2=Cc3cc(OC)ccc3OC2)c1,35.5
7,COc1ccc(/C=C/C(=O)C2=Cc3cc(OC)ccc3OC2)cc1,0.59
8,COc1cccc(C(=O)/C=C/C2=Cc3cc(Br)ccc3OC2)c1,4.56
9,COc1ccc2c(c1)C=C(/C=C/C(=O)C1=Cc3cc(OC)ccc3OC1)CO2,12.9
10,COc1ccc2c(c1)C=C(C(=O)/C=C/C1=Cc3cccc(OC)c3OC1)CO2,7.19
11,COc1ccccc1C(=O)/C=C/C1=Cc2cc(Br)ccc2OC1,6.13
12,COc1ccc2c(c1)C=C(/C=C/C(=O)c1ccccc1OC)CO2,1.04
13,COc1cc(OC)cc(C(=O)/C=C/C2=Cc3cc(Br)ccc3OC2)c1,3.4
14,COc1ccc(C(=O)/C=C/C2=Cc3ccc(OC)cc3OC2)cc1,10.5
15,COc1ccc(C(=O)/C=C/C2=Cc3cc(OC)ccc3OC2)cc1,7.95
